Measured values published in ChEMBL document CHEMBL1201862, “PubChem BioAssay data set” (2004).
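96-well plates; 48 h exposure; 5 concentrations. Endpoints by linear interpolation between flanking doses. Not reached: highest tested concentration assigned. GI50 marks 50% less growth.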 The source made the active and inactive calls. Cut-off read from the data, not from the text of the source: active = GI50 up to about 1.1 µM and inactive = higher.

Assays:
Assay in all cases: growth of human tumour cells (NCI), 48 h
DMS-114 = system: DMS-114
EKVX = system: EKVX
HCT-116 = system: HCT-116
HOP-62 = system: HOP-62
K562 = system: K562
KM-20L2 = system: KM-20L2
KM12 = system: KM12
M14 = system: M14
MOLT-4 = system: MOLT-4
NCI-H226 = system: NCI-H226
NCI-H522 = system: NCI-H522
OVCAR-8 = system: OVCAR-8
RXF 393 = system: RXF 393
SF-295 = system: SF-295
SK-MEL-5 = system: SK-MEL-5
U-251 = system: U-251
UACC-62 = system: UACC-62
BT-549 = system: BT-549
MCF7 = system: MCF7
MDA-N = system: MDA-N

Row | Structure (SMILES) | GI50 (DMS-114) | GI50 (EKVX) | GI50 (HCT-116) | GI50 (HOP-62) | GI50 (K562) | GI50 (KM-20L2) | GI50 (KM12) | GI50 (M14) | GI50 (MOLT-4) | GI50 (NCI-H226) | GI50 (NCI-H522) | GI50 (OVCAR-8) | GI50 (RXF 393) | GI50 (SF-295) | GI50 (SK-MEL-5) | GI50 (U-251) | GI50 (UACC-62) | GI50 (BT-549) | GI50 (MCF7) | GI50 (MDA-N)
1 | Cc1nc(Nc2ccccc2)sc1C(=O)NNC(N)=O | 84.5 µM (inactive) | 55.6 µM (inactive) | > 100 µM (inactive) | 49.8 µM (inactive) | > 100 µM (inactive) | > 100 µM (inactive) | > 100 µM (inactive) | > 100 µM (inactive) | > 100 µM (inactive) | > 100 µM (inactive) | > 100 µM (inactive) | > 100 µM (inactive) | 29.2 µM (inactive) | > 100 µM (inactive) | > 100 µM (inactive) | 99.3 µM (inactive) | > 100 µM (inactive) |  |  | 
2 | CC(=O)Nc1ccc(C(=O)NN2C(=O)C(Cl)C2c2cc(Br)cc(Br)c2O)cc1 (centres undefined) | > 100 µM (inactive) | > 100 µM (inactive) | > 100 µM (inactive) | > 100 µM (inactive) | > 100 µM (inactive) | > 100 µM (inactive) | > 100 µM (inactive) | > 100 µM (inactive) | > 100 µM (inactive) | > 100 µM (inactive) | > 100 µM (inactive) | > 100 µM (inactive) |  |  | > 100 µM (inactive) | > 100 µM (inactive) | > 100 µM (inactive) |  |  | 
3 | COC(c1cccc(C(O)(C(F)(F)F)C(F)(F)F)c1)(C(F)(F)F)C(F)(F)F | 18.6 µM (inactive) | 17.9 µM (inactive) | 16.9 µM (inactive) | 19.1 µM (inactive) |  | 16.9 µM (inactive) | 19.5 µM (inactive) | 18.7 µM (inactive) | 22 µM (inactive) | 18.2 µM (inactive) | 13.5 µM (inactive) | 24.6 µM (inactive) | 20.4 µM (inactive) | 15.7 µM (inactive) |  | 18.3 µM (inactive) | 14.3 µM (inactive) |  |  | 
4 | Cn1c(=O)nc2n(-c3ccc(Br)cc3)c3ccccc3nc-2c1=O | 2 µM (inactive) | 1.94 µM (inactive) | 4.11 µM (inactive) | 13.6 µM (inactive) | 5.43 µM (inactive) | 2.54 µM (inactive) | 8.83 µM (inactive) | 3.75 µM (inactive) | 6.25 µM (inactive) | 11 µM (inactive) | 4.39 µM (inactive) | 3.38 µM (inactive) | 12.3 µM (inactive) | 3.66 µM (inactive) | 1.77 µM (inactive) | 5.12 µM (inactive) | 1.3 µM (inactive) |  |  | 
5 | Cc1c(-c2ccc(-c3ccccc3F)cc2)nc2ccc(F)cc2c1C(=O)O [BREQUINAR SODIUM] |  | 16 µM (inactive) | 0.104 µM (active) | 1.1 µM (active) | 0.143 µM (active) | 0.615 µM (active) | 0.211 µM (active) | 4.7 µM (inactive) | 0.0887 µM (active) | 19.5 µM (inactive) | 2 µM (inactive) | 0.325 µM (active) | 11.7 µM (inactive) | 0.243 µM (active) | 1.39 µM (inactive) | 0.194 µM (active) | 0.265 µM (active) | 155 µM (inactive) | 0.267 µM (active) | 0.631 µM (active)
6 | COc1cccc(NC(=O)CC(=O)n2nc(C)c(/N=N/c3ccccc3)c2C)c1 | > 100 µM (inactive) | 58.6 µM (inactive) | > 100 µM (inactive) | > 100 µM (inactive) |  |  | > 100 µM (inactive) | > 100 µM (inactive) | 69.2 µM (inactive) | 28.5 µM (inactive) | > 100 µM (inactive) | > 100 µM (inactive) |  | > 100 µM (inactive) | 76.4 µM (inactive) | > 100 µM (inactive) | 79.1 µM (inactive) |  |  | 
7 | CC(O)/C=C/C(CCC(C)CO)C(C)C (centres undefined) | > 100 µM (inactive) | > 100 µM (inactive) | > 100 µM (inactive) | > 100 µM (inactive) | > 100 µM (inactive) |  | > 100 µM (inactive) | > 100 µM (inactive) | > 100 µM (inactive) |  | > 100 µM (inactive) | > 100 µM (inactive) | > 100 µM (inactive) | > 100 µM (inactive) | > 100 µM (inactive) | > 100 µM (inactive) | > 100 µM (inactive) |  |  | 
8 | O=C1C(Cl)N(c2cccc([N+](=O)[O-])c2)C1c1c[nH]c2ccccc12 (centres undefined) | 15.1 µM (inactive) | 28.4 µM (inactive) | 19.2 µM (inactive) | 17.1 µM (inactive) | 19 µM (inactive) | 19.9 µM (inactive) | 20.2 µM (inactive) | 16.1 µM (inactive) | 8.38 µM (inactive) |  | 16 µM (inactive) | 23.1 µM (inactive) | 12.9 µM (inactive) | 17.8 µM (inactive) | 17 µM (inactive) | 22.2 µM (inactive) | 13.8 µM (inactive) |  |  | 
9 | CCCCc1c2c(nc3c1CCCC3=O)CCCC2 | > 100 µM (inactive) | > 100 µM (inactive) | > 100 µM (inactive) | > 100 µM (inactive) | > 100 µM (inactive) | 20 µM (inactive) | > 100 µM (inactive) | > 100 µM (inactive) | > 100 µM (inactive) | 18.3 µM (inactive) | > 100 µM (inactive) | > 100 µM (inactive) |  | > 100 µM (inactive) | > 100 µM (inactive) | > 100 µM (inactive) |  |  |  | 
10 | COC(=O)C12CC(c3ccccc31)C1C(=O)OC(=O)C12 (centres undefined) | > 100 µM (inactive) | > 100 µM (inactive) | > 100 µM (inactive) | > 100 µM (inactive) | > 100 µM (inactive) | > 100 µM (inactive) | > 100 µM (inactive) | > 100 µM (inactive) | > 100 µM (inactive) |  | > 100 µM (inactive) | > 100 µM (inactive) | > 100 µM (inactive) | > 100 µM (inactive) | > 100 µM (inactive) | > 100 µM (inactive) | > 100 µM (inactive) |  |  | 
11 | CN(C)c1ccc(/C=C/C(=O)O)cc1 | > 100 µM (inactive) | > 100 µM (inactive) | > 100 µM (inactive) | > 100 µM (inactive) | > 100 µM (inactive) | > 100 µM (inactive) | > 100 µM (inactive) | > 100 µM (inactive) | > 100 µM (inactive) | > 100 µM (inactive) | > 100 µM (inactive) | > 100 µM (inactive) |  | > 100 µM (inactive) | > 100 µM (inactive) |  | > 100 µM (inactive) |  |  | 
12 | CC(=O)c1ccc(NC(=O)C(=O)C(C#N)CC(C)(C)C=O)cc1 (centres undefined) |  | > 100 µM (inactive) | > 100 µM (inactive) | > 100 µM (inactive) | > 100 µM (inactive) | > 100 µM (inactive) | > 100 µM (inactive) | > 100 µM (inactive) | > 100 µM (inactive) | > 100 µM (inactive) | > 100 µM (inactive) | > 100 µM (inactive) |  | > 100 µM (inactive) | > 100 µM (inactive) | > 100 µM (inactive) | > 100 µM (inactive) |  |  | 
13 | Cc1cc(S(=O)(=O)Nc2nc3ccccc3nc2-c2cccc([N+](=O)[O-])c2)c(S)cc1Cl |  | 22.1 µM (inactive) | 18.8 µM (inactive) | 20.2 µM (inactive) | 26 µM (inactive) |  | 15.6 µM (inactive) | 17.2 µM (inactive) | 22.6 µM (inactive) | 21.4 µM (inactive) | 16.8 µM (inactive) | 34.5 µM (inactive) | 33.7 µM (inactive) | 25.1 µM (inactive) | 15 µM (inactive) | 16.9 µM (inactive) | 12.3 µM (inactive) | 38.7 µM (inactive) | 24 µM (inactive) | 20.5 µM (inactive)
14 | CCOC(=O)C(N=C(c1ccccc1)c1ccccc1)N(C(=O)OC(C)(C)C)C(=O)OC(C)(C)C (centres undefined) | > 100 µM (inactive) | > 100 µM (inactive) | > 100 µM (inactive) |  | > 100 µM (inactive) | > 100 µM (inactive) | > 100 µM (inactive) |  | > 100 µM (inactive) | > 100 µM (inactive) | > 100 µM (inactive) | > 100 µM (inactive) | 19.8 µM (inactive) | > 100 µM (inactive) | > 100 µM (inactive) | > 100 µM (inactive) | > 100 µM (inactive) |  |  | 
15 | C=C(C(=C)P(=S)(c1ccccc1)c1ccccc1)P(=S)(c1ccccc1)c1ccccc1 | 35.2 µM (inactive) | > 100 µM (inactive) | > 100 µM (inactive) | > 100 µM (inactive) | > 100 µM (inactive) | > 100 µM (inactive) | > 100 µM (inactive) | > 100 µM (inactive) | > 100 µM (inactive) |  | > 100 µM (inactive) | > 100 µM (inactive) | > 100 µM (inactive) | > 100 µM (inactive) | > 100 µM (inactive) | > 100 µM (inactive) | > 100 µM (inactive) |  |  | 
16 | O=C1N/C(=N/N=C/C(O)C(O)C(O)CO)N/C1=C\c1ccco1 (centres undefined) |  | > 100 µM (inactive) | > 100 µM (inactive) | > 100 µM (inactive) | > 100 µM (inactive) |  | > 100 µM (inactive) | > 100 µM (inactive) | > 100 µM (inactive) | > 100 µM (inactive) | > 100 µM (inactive) | > 100 µM (inactive) | > 100 µM (inactive) | > 100 µM (inactive) | > 100 µM (inactive) | > 100 µM (inactive) | > 100 µM (inactive) | > 100 µM (inactive) | > 100 µM (inactive) | > 100 µM (inactive)
17 | COc1cc2c(cc1OC)C(Cl)C(c1ccc(Cl)cc1)=C2Cl (centres undefined) | 11.9 µM (inactive) | 9.86 µM (inactive) |  |  | 7.66 µM (inactive) | 18.1 µM (inactive) |  | 15.4 µM (inactive) | 6.73 µM (inactive) | 22 µM (inactive) | 12 µM (inactive) | 19.3 µM (inactive) |  | 14.5 µM (inactive) | 14.4 µM (inactive) | 13.7 µM (inactive) | 12.5 µM (inactive) |  |  | 
